From patent US9052321B2, “Flavivirus-based system for production of hepatitis C virus (HCV)” (priority 2008, dated 2015)

Test system: HCV particles released by BHK-21 parental or BHK-WNV1 cells
Assay: Release of HCV envelope proteins/particles by BHK cells transfected with pHCVp7 after glycosylation or trafficking inhibitors (Western blot)
Type: cell-based, HCV 1a
Settings: for secretion of HCV envelope as well as core proteins: BHK parental and -WNV SG-replicon cells transfected with pHCVp7, 3 mM dnj, 3 mM pag or 0.3 mM alloxan, Western blot; for HCV production and/or secretion: summary in the model of FIG. 13
Procedure: FIG. 2 illustrates factors affecting the release of HCV structural proteins: A) Enhancement by flavivirus, but not alphavirus subgenomic, replicons in BHK-21 cells: BHK-21 parental cells (lane 1) or bearing WNV1 (lane 2), Den2 (lane 3) or Semliki Forest virus SG-replicon (lane 4) were transfected with pHCVp7 (plasmid encoding HCV core to p7). Three days later, clarified culture media were pelleted over 15% sucrose cushion, then pellets were analyzed by Western blot with the following monoclonal antibodies: i) anti-HCV E2: AP33; ii) anti-HCV E1: A4, and iii) anti-HCV core: C1. B) WNV- and HCV-SG rep differentially affect the release of HCV-like particles. (left) BHK-21 cells, parental or bearing WNV1 SG-rep, were transfected with HCVp7, a plasmid encoding HCV core to p7. Three days later, HCV proteins in the lysate and supernatants (SN) were analyzed by Western Blot (WB). (right) HuH-7.5 cells (parental or harboring HCV 1a SG-rep) transfected with the same plasmid, were analyzed by WB. *, the E1/E2 signals were obtained with 60 ml of culture media instead of 15 ml for BHK parental and -WNV1 cells. C) N-glycosylation but not O-glycosylation is required for the release of HCV particles: BHK cells were transfected with pHCVp7, then treated or not with 3 mM deoxynojirimycin (dnj), 3 mM phenyl acetyl galactosaminide (pag) or 0.3 mM alloxan (all) for 2 days; HCV E1 Envelope released by BHK-21 parental or BHK-WNV1 cells was analyzed by Western blot after incubation with or without endoglycosidase H (endo-H).
FIG. 11 illustrates that secretion of HCV particles involves maturation of HCV glycoproteins in Golgi apparatus: A) Twelve hours after transfection of BHK-WNV1 cells with pHCVp7, cells were treated with 20 μM brefeldin-A (BFA) for 24 hours and the amounts of HCV E1 and E2 proteins in cell lysates and released particles were analyzed by WB; Hsp70=control. B) BHK and BHK-WNV1 cells were transfected with pHCVp7. Three days later, cells and particles in SN were harvested and treated with endo-H, followed by WB analysis. *, 30 ml culture media was used for parental BHK cells (15 ml for BHK-WNV1 cells).
To test the sensitivity of HCV glycoproteins produced in BHK-21 cells to endo-beta-N-acetyl-glucosaminidase H (endoglycosidase H/endo-H; New England Biolabs), cells were transfected with pHCVp7 plasmid. Three days later, supernatant was harvested as above; cell lysate and supernatant were then incubated in the presence of endo-H according to the manufacturer's protocols. For deoxyrijinomycin (DNJ) and brefeldin A (BFA) treatment, cells were transfected with pHCVp7 and, 12 hr later, the medium was replaced with DMEM containing 5 μg/ml BFA (Sigma), or 3 mM DNJ. Cells were grown for another 24 hr and supernatant was harvested.

Structure (SMILES)	secretion of HCV envelope as well as core proteins	HCV production and/or secretion (BHK-WNV1 cells)	release of HCV particles (parental BHK-21 and BHK-WNV1 cells, 3 mM DNJ)	HCV secretion (BHK-WNV1 cells, 20 μM BFA for 24 hours)	electrophoretic mobility of intracellular HCV envelope proteins (BHK-WNV1 cells, BFA)
O=C1NC(=O)C(=O)C(=O)N1 [alloxan]	marginal effects				
OC[C@H]1NC[C@H](O)[C@@H](O)[C@@H]1O [DNJ, deoxynojirimycin]	strongly inhibited	blocked	decreased		
C[C@H]1CCC/C=C/[C@@H]2C[C@H](O)C[C@H]2[C@H](O)/C=C/C(=O)O1 [BFA, brefeldin A]		blocked		abrogated	enhanced
CC(=O)N[C@H]1[C@@H](Oc2ccccc2)O[C@H](CO)[C@H](O)[C@@H]1O [phenyl acetyl galactosaminide]	marginal effects				
